Measurements: the supplement of paper PMC10307832

Compound: N[C@@H]1CCCN(c2c(/C=C3\SC(=O)NC3=O)cccc2-c2ccccc2)C1 [AZD1208] + COc1cc2c(Oc3ccc(NC(=O)C4(C(=O)Nc5ccc(F)cc5)CC4)cc3F)ccnc2cc1OCCCN1CCOCC1 [Foretinib] (partner 0.25 µM)
Experiment: relative viability (nuclei count vs DMSO), 5 days (fraction); higher = more cells survive
Settings: first compound 0.253 µM
Summary of the method: (§1)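 Lung cancer cell lines were seeded in 1536-well plates and dosed by pin tool the next day, with either a single drug or a fixed anchor-drug dose combined with five library-drug doses (not always all listed) spaced in √10 steps. Five days later, one step fixed the cells and stained their nuclei (final 0.05% Triton X-100, 1% formaldehyde, 1 ug/ml Hoechst), and nuclei were counted on 4× images. Relative viability is the nuclei count in treated wells divided by the count in vehicle wells, and each value is the median of duplicate plates.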

Compared with NCI-H1623, NCI-H838 is higher in relative viability: 0.763 for the first, 1 for the second.

First: NCI-H1650
Second: EBC-1
The relative viability of the first is higher: 0.993 for the first, 0.0985 for the second.

First: NCI-H1703
Second: NCI-H2009
The relative viability of the first is lower: 0.333 for the first, 1.2 for the second.

Compared with NCI-H1993, PC-14 is higher in relative viability: 0.664 for the first, 1.06 for the second.

First: LCLC-103H
Second: NCI-H596
The relative viability of the first is lower: 0.665 for the first, 0.912 for the second.

First: NCI-H2228
Second: EMC-BAC-2
The relative viability of the first is lower: 0.809 for the first, 1.04 for the second.

Going from NCI-H2087 to Calu-6, the relative viability falls from 1.26 to 0.938.

Compared with HCC-366, NCI-H1666 is higher in relative viability: 0.985 for the first, 1 for the second.

Going from NCI-H647 to LK-2, the relative viability falls from 1.25 to 0.707.

Going from NCI-H2126 to NCI-H2342, the relative viability rises from 0.834 to 0.946.

Going from SK-MES-1 to H3255, the relative viability falls from 0.949 to 0.867.

Compared with COR-L23, COR-L 105 is higher in relative viability: 1.05 for the first, 1.09 for the second.

Going from IA-LM to LOU-NH91, the relative viability falls from 1.09 to 0.876.

Compared with ChaGo-K-1, NCI-H2170 is higher in relative viability: 0.903 for the first, 1.07 for the second.

First: A549
Second: SW 900
The relative viability of the first is higher: 1.05 for the first, 0.807 for the second.

Compared with NCI-H727, NCI-H1299 is higher in relative viability: 0.938 for the first, 1.08 for the second.

Compared with NCI-H650, NCI-H1563 is lower in relative viability: 1.03 for the first, 1.02 for the second.

Going from ABC-1 to NCI-H358, the relative viability falls from 1.02 to 0.692.

With NCI-H661 the relative viability was 1.15.

Same assay, conditions: first compound 0.8 µM

Compared with NCI-H1623, NCI-H838 is higher in relative viability: 0.801 for the first, 0.939 for the second.

First: NCI-H1650
Second: EBC-1
The relative viability of the first is higher: 1.17 for the first, 0.0803 for the second.

Going from NCI-H1703 to NCI-H2009, the relative viability rises from 0.275 to 1.14.

First: NCI-H1993
Second: PC-14
The relative viability of the first is lower: 0.581 for the first, 1.06 for the second.

First: LCLC-103H
Second: NCI-H596
The relative viability of the first is lower: 0.56 for the first, 0.806 for the second.

Going from NCI-H2228 to EMC-BAC-2, the relative viability rises from 0.635 to 1.

First: NCI-H2087
Second: Calu-6
The relative viability of the first is lower: 0.89 for the first, 0.946 for the second.

Compared with HCC-366, NCI-H1666 is higher in relative viability: 0.843 for the first, 0.953 for the second.

First: NCI-H647
Second: LK-2
The relative viability of the first is higher: 1.04 for the first, 0.821 for the second.

Compared with NCI-H2126, NCI-H2342 is higher in relative viability: 0.766 for the first, 0.934 for the second.

Going from SK-MES-1 to H3255, the relative viability falls from 0.817 to 0.65.

First: COR-L23
Second: COR-L 105
The relative viability of the first is lower: 0.966 for the first, 1.05 for the second.

First: IA-LM
Second: LOU-NH91
The relative viability of the first is higher: 0.924 for the first, 0.874 for the second.

First: ChaGo-K-1
Second: NCI-H2170
The relative viability of the first is lower: 0.808 for the first, 1.08 for the second.

First: A549
Second: SW 900
The relative viability of the first is higher: 0.824 for the first, 0.691 for the second.

First: NCI-H727
Second: NCI-H1299
The relative viability of the first is lower: 0.737 for the first, 1.08 for the second.

First: NCI-H650
Second: NCI-H1563
The relative viability of the first is higher: 0.977 for the first, 0.919 for the second.

Compared with ABC-1, NCI-H358 is lower in relative viability: 1.13 for the first, 0.573 for the second.

NCI-H661 showed a relative viability of 1.04.

Same assay, conditions: first compound 2.53 µM

Compared with NCI-H1623, NCI-H838 is higher in relative viability: 0.837 for the first, 1.02 for the second.

First: NCI-H1650
Second: EBC-1
The relative viability of the first is higher: 1.05 for the first, 0.0927 for the second.

Going from NCI-H1703 to NCI-H2009, the relative viability rises from 0.301 to 1.26.

Going from NCI-H1993 to PC-14, the relative viability rises from 0.71 to 1.04.

Compared with LCLC-103H, NCI-H596 is higher in relative viability: 0.558 for the first, 0.865 for the second.

Going from NCI-H2228 to EMC-BAC-2, the relative viability rises from 0.842 to 1.02.

Going from NCI-H2087 to Calu-6, the relative viability falls from 0.977 to 0.867.

Compared with HCC-366, NCI-H1666 is higher in relative viability: 0.949 for the first, 0.954 for the second.

First: NCI-H647
Second: LK-2
The relative viability of the first is higher: 1.16 for the first, 0.574 for the second.

First: NCI-H2126
Second: NCI-H2342
The relative viability of the first is higher: 1.09 for the first, 1.02 for the second.

Compared with SK-MES-1, H3255 is higher in relative viability: 0.769 for the first, 0.954 for the second.

Compared with COR-L23, IA-LM is higher in relative viability: 0.94 for the first, 1.14 for the second.

First: LOU-NH91
Second: ChaGo-K-1
The relative viability of the first is higher: 0.93 for the first, 0.875 for the second.

Compared with NCI-H2170, A549 is lower in relative viability: 1.03 for the first, 0.927 for the second.

Going from SW 900 to NCI-H727, the relative viability falls from 0.947 to 0.533.

First: NCI-H1299
Second: NCI-H650
The relative viability of the first is higher: 1.14 for the first, 0.9 for the second.

First: NCI-H1563
Second: ABC-1
The relative viability of the first is higher: 0.994 for the first, 0.92 for the second.

Compared with NCI-H358, NCI-H661 is higher in relative viability: 0.698 for the first, 0.994 for the second.

Same assay, conditions: first compound 8 µM

Compared with NCI-H1623, NCI-H838 is higher in relative viability: 0.771 for the first, 0.946 for the second.

Compared with NCI-H1650, EBC-1 is lower in relative viability: 1.1 for the first, 0.103 for the second.

Going from NCI-H1703 to NCI-H2009, the relative viability rises from 0.335 to 1.16.

Going from NCI-H1993 to PC-14, the relative viability rises from 0.713 to 0.999.

Going from LCLC-103H to NCI-H596, the relative viability rises from 0.485 to 0.673.

Going from NCI-H2228 to EMC-BAC-2, the relative viability falls from 0.761 to 0.727.

Going from NCI-H2087 to Calu-6, the relative viability falls from 0.988 to 0.747.

Compared with HCC-366, NCI-H1666 is higher in relative viability: 0.899 for the first, 0.975 for the second.

Compared with NCI-H647, LK-2 is lower in relative viability: 0.897 for the first, 0.421 for the second.

Compared with NCI-H2126, NCI-H2342 is lower in relative viability: 0.931 for the first, 0.801 for the second.

Going from SK-MES-1 to H3255, the relative viability rises from 0.661 to 0.932.

Going from COR-L23 to COR-L 105, the relative viability rises from 0.97 to 1.

First: IA-LM
Second: LOU-NH91
The relative viability of the first is higher: 1.05 for the first, 0.909 for the second.

Compared with ChaGo-K-1, NCI-H2170 is higher in relative viability: 0.73 for the first, 0.878 for the second.

First: A549
Second: SW 900
The relative viability of the first is lower: 0.708 for the first, 0.923 for the second.

First: NCI-H727
Second: NCI-H1299
The relative viability of the first is lower: 0.781 for the first, 1.07 for the second.

First: NCI-H650
Second: NCI-H1563
The relative viability of the first is lower: 0.829 for the first, 0.908 for the second.

Compared with ABC-1, NCI-H358 is lower in relative viability: 0.967 for the first, 0.522 for the second.

NCI-H661 gave a relative viability of 0.951.

Compound: N[C@@H]1CCCN(c2c(/C=C3\SC(=O)NC3=O)cccc2-c2ccccc2)C1 [AZD1208] + Nc1nc2[nH]cc(CCc3ccc(C(=O)N[C@@H](CCC(=O)O)C(=O)O)cc3)c2c(=O)[nH]1 [Pemetrexed] (partner 0.2 µM)
Experiment: as above
Settings: first compound 0.08 µM
Summary of the method: as §1

Going from NCI-H522 to NCI-H838, the relative viability falls from 0.975 to 0.239.

First: NCI-H1650
Second: NCI-H2009
The relative viability of the first is lower: 0.4 for the first, 1.01 for the second.

NCI-H1993 gave a relative viability of 0.481.
